The text below walks through data of US11504385B2, “Proteolysis targeting chimeric molecule, preparation method, and application” (CHINA PHARMACEUTICAL UNIVERSITY, priority 2019, dated 2022).

Test [1] deals with T1, ABL (Homo sapiens, UniProt P00519).
T1 construct: degradation effect of the compound 4C on c-ABL and BCR-ABL proteins in K562 cells; endogenous in cells; host or cells: K562
Description: Immunoblotting, degradation of ABL protein in K562 cells. The test is classed as cell-based. To be noted: 100 nM, 36 hours after administration. The method, then:
(§1) Initially, researchers synthesized a 2C compound (FIG. 2A), which is a small molecule with the shortest joining chain (n=1). By using BCR-ABL and CRBN positive K562 cell lines, degradation of ABL and BCR-ABL proteins in the cells under the action of the compound was tested by immunoblotting. […] Then, the researchers tried to extend the joining chain (increasing the value of n).
(§2) In order to test the degradation effect of the compound 4C on c-ABL and BCR-ABL proteins in K562 cells, the researchers performed an immunoblotting experiment. […] In order to exclude the possibility that the compound 4C affected the ABL gene to generate false positive expression, the researchers used RT-qPCR in K562 cells to study the expression of the ABL gene.
The operation method of the immunoblotting experiment is as follows:
K562 cells after administration were incubated for 24 hours.
(§3) The medium was aspirated from the culture; the cells were washed with 1*PBS; and the cells were aspirated.
(§4) A weak RIPA lysate (100 μL) was added to lyse the cells for 40 min.
(§5) The sample was centrifuged at 13000 rpm, 4° C. for 15 min; 80 μl of supernatant was taken and added to 20 μl of loading buffer; the reaction solution was heated at 100° C. for 8 minutes; and the sample was placed on ice and cooled.
(§6) […] of sample was loaded on 10% SDS-PAGE gel. The sample was transferred to a PVDF membrane by a wet process.
(§7) A membrane was placed in 25 ml of blocking buffer and blocked at room temperature for 1 hour.
(§8) The membrane and the primary antibody (according to the appropriate dilution and diluent recommended in the product description) were placed in 10 ml of primary antibody dilution buffer, and incubated overnight at 4° C. and gently shaken from time to time.
(§9) Anti-rabbit IgG, HRP-linked Antibody (#7074, in a ratio of 1:2000) and anti-biotin, HRP-linked Antibody (#7075, in a ratio of 1:1000-1:3000) are diluted with 10 ml of blocking buffer to detect biotinylated protein standards. The membrane was incubated with the diluent, and gently shaken and incubated at room temperature for 1 hour.
(§10) A developer solution and the membrane were incubated together for 1 minute, the excess solution was discarded (the membrane remained moist) and the membrane was exposed.
(§11) Next, we tested the difference in the activity of different configurations of compound 4C in degradation of ABL and BCR-ABL proteins. […] The operation method of the immunoblotting experiment is the same as above.

The target in test [2] is T2, BCR-ABL fusion protein (Homo sapiens, UniProt P00519+P11274+Q96SW2, E27K).
T2 construct: By using BCR-ABL and CRBN positive K562 cell lines; endogenous in cells; host or cells: K562
Description: Immunoblotting, degradation of BCR-ABL protein in K562 cells. The test is classed as cell-based. To be noted: for inhibition of expression of BCR-ABL and/or CRBN protein: BCR-ABL and/or CRBN positive leukemia K562 cells, to varying degrees. How it is done:
as §1, §2
The operation method of the immunoblotting experiment is as follows: […]
as §3, §4, §5, §6, §7, §8, §9, §10, §11
Background: Immunoblotting shows a protein as a band on a membrane.

T1 sequence (P00519 whole entry): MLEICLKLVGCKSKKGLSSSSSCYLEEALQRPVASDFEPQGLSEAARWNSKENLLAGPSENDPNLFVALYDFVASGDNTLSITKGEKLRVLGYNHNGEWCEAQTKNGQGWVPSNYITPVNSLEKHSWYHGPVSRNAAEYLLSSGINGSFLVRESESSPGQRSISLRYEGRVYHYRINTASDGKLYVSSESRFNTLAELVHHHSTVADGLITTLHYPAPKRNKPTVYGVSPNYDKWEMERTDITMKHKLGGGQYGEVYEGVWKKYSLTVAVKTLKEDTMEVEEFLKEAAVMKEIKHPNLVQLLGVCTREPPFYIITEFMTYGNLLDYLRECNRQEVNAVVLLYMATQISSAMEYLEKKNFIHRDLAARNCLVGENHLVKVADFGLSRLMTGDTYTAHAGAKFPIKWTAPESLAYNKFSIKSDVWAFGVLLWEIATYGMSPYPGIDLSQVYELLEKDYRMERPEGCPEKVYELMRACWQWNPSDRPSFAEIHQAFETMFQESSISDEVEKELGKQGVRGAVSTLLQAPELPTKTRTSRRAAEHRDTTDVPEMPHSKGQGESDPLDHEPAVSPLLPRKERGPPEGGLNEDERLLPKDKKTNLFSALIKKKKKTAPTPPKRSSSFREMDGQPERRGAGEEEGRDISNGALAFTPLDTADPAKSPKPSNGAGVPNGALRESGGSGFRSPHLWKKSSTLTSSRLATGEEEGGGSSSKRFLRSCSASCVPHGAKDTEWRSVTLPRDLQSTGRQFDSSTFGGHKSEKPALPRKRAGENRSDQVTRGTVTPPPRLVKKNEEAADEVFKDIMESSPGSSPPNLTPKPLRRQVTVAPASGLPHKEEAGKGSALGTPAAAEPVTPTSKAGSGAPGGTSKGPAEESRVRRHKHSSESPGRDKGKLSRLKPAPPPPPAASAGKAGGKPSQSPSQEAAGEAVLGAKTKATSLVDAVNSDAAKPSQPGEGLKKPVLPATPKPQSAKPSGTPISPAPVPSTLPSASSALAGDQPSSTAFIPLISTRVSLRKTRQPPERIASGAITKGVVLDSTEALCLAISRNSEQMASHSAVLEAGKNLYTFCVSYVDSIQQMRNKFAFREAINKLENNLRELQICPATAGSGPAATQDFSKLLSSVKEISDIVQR

With `Cc1nc(Nc2ncc(C(=O)Nc3c(C)cccc3Cl)s2)cc(N2CCN(CCOc3ccc(/N=N/c4ccc(C(=O)Nc5cccc6c5CN(C5CCC(=O)NC5=O)C6=O)cc4)cc3)CC2)n1` (stereo not shown) [Compound 2C, (E)-N-(2-chloro-6-methylphenyl)-2-((6-(4-(2-(4-((4-((2-(2,6-dioxopiperidin-3-yl)-1-oxoisoindolin-4-yl)carbamoyl)phenyl)diazenyl)phenoxy)ethyl)piperazin-1-yl)-2-methylpyrimidin-4-yl)amino)thiazole-5-carboxamide], in test [1], the “level of the ABL protein (WB)” value is reported as “significantly reduced”. For the same molecule, the “inhibition of expression of BCR-ABL and/or CRBN protein” value in test [2] is recorded as “can inhibit the expression”. Moreover, the “level of BCR-ABL fusion protein (WB)” value in test [2] (K562 cells, 100 nM, 36 hours after administration) is given as “significantly reduced”. Further, the “level of the BCR-ABL protein (WB)” value in test [2] (K562 cells, 36 hours after administration, dose-effect) is reported as “down-regulate the level of the BCR-ABL protein in a dose-dependent manner”.

Take `Cc1nc(Nc2ncc(C(=O)Nc3c(C)cccc3Cl)s2)cc(N2CCN(CCCCCOc3ccc(/N=N/c4ccc(C(=O)Nc5cccc6c5CN(C5CCC(=O)NC5=O)C6=O)cc4)cc3)CC2)n1` (stereo not shown) [Compound 5C, (E)-N-(2-chloro-6-methylphenyl)-2-((6-(4-(5-(4-((4-((2-(2,6-dioxopiperidin-3-yl)-1-oxoisoindolin-4-yl)carbamoyl)phenyl)diazenyl)phenoxy)pentyl)piperazin-1-yl)-2-methylpyrimidin-4-yl)amino)thiazole-5-carboxamide]: the “inhibition of expression of BCR-ABL and/or CRBN protein” value in test [2] is “can inhibit the expression”. The same measure, in the same setting: the same measure for `Cc1nc(Nc2ncc(C(=O)Nc3c(C)cccc3Cl)s2)cc(N2CCN(CCCCCCOc3ccc(/N=N/c4ccc(C(=O)Nc5cccc6c5CN(C5CCC(=O)NC5=O)C6=O)cc4)cc3)CC2)n1` (stereo not shown) [Compound 6C, (E)-N-(2-chloro-6-methylphenyl)-2-((6-(4-(6-(4-((4-((2-(2,6-dioxopiperidin-3-yl)-1-oxoisoindolin-4-yl)carbamoyl)phenyl)diazenyl)phenoxy)hexyl)piperazin-1-yl)-2-methylpyrimidin-4-yl)amino)thiazole-5-carboxamide]: “can inhibit the expression”. Still for that read-out and setting: next, `Cc1nc(Nc2ncc(C(=O)Nc3c(C)cccc3Cl)s2)cc(N2CCN(CCCOc3ccc(/N=N/c4ccc(C(=O)Nc5cccc6c5CN(C5CCC(=O)NC5=O)C6=O)cc4)cc3)CC2)n1` (stereo not shown) [Compound 3C, (E)-N-(2-chloro-6-methylphenyl)-2-((6-(4-(3-(4-((4-((2-(2,6-dioxopiperidin-3-yl)-1-oxoisoindolin-4-yl)carbamoyl)phenyl)diazenyl)phenoxy)propyl)piperazin-1-yl)-2-methylpyrimidin-4-yl)amino)thiazole-5-carboxamide]: “can inhibit the expression”.
